Reference: paper PMC11762413 (2025)

Experiments:
[1] = tested on: VAN-specific aptamer (Apt), 4trunc, immobilised on gold (DNA, aptamer) CGAGGGTACCGCAATAGTACTTATTGTTCGCCTATTGTGGGTCGG; test: SPR kinetics (koff/kon); conditions: 100 mM Na+, 100 mM K+, 10 mM Mg2+; 10 mM TRIS pH 7.4; aptamer immobilised on gold chip; VAN 0.05–10 µM; 1:1 model
[2] = tested on: VAN-specific aptamer (Apt), 4trunc, in solution (DNA, aptamer) CGAGGGTACCGCAATAGTACTTATTGTTCGCCTATTGTGGGTCGG; test: ITC; conditions: 100 mM Na+, 100 mM K+, 10 mM Mg2+; 10 mM TRIS pH 7.4, 25 °C; 10 µM aptamer titrated with 150 µM VAN; independent sites
[3] = tested on: VAN-specific aptamer (Apt), 4trunc, immobilised on gold (DNA, aptamer) CGAGGGTACCGCAATAGTACTTATTGTTCGCCTATTGTGGGTCGG; test: EIS aptasensor selectivity; conditions: 100 mM Na+, 100 mM K+, 10 mM Mg2+, 10 mM TRIS pH 7.4, room temperature, 45 min, tested at 1 µM

## CN[C@H](CC(C)C)C(=O)N[C@H]1C(=O)N[C@@H](CC(N)=O)C(=O)N[C@H]2C(=O)N[C@H]3C(=O)N[C@H](C(=O)N[C@H](C(=O)O)c4cc(O)cc(O)c4-c4cc3ccc4O)[C@H](O)c3ccc(c(Cl)c3)Oc3cc2cc(c3O[C@@H]2O[C@H](CO)[C@@H](O)[C@H](O)[C@H]2O[C@H]2C[C@](C)(N)[C@H](O)[C@H](C)O2)Oc2ccc(cc2Cl)[C@H]1O
[1]
  KD: 18.31 ± 1.15 µM
[2]
  KD: 13.35 ± 2.74 µM

## OC[C@H]1O[C@@H](O[C@H]2[C@H](O)[C@@H](O)C(O)O[C@@H]2CO)[C@H](O)[C@@H](O)[C@H]1O (stereo partly shown)
[3]; 9.78% of VAN signal
  binding: no

## OC[C@H]1OC(O)[C@H](O)[C@@H](O)[C@@H]1O (stereo partly shown)
[3]; 10.65% of VAN signal
  binding: no
